Laboratory results from ChEMBL document CHEMBL3769369, “Ligand-based modeling of diverse aryalkylamines yields new potent P-glycoprotein inhibitors” (Eur J Med Chem, 2016).

Experiments:
[1] = test system: MCF7; assay: Cytotoxicity against human MCF7 cells assessed as viable cells at 10 uM by trypan blue staining based assay; assay type: functional; conditions: read-out: Activity
[2] = Inhibition of P-gp in human MCF7/D70 cells assessed as decrease in doxorubicin IC50 at 50 uM after 72 hrs by MTT assay (Rvb doxorubicin alone IC50 = 0.906 +/- 0.02 uM); assay type: cell-based; conditions: MCF7/D70, 72 h
[3] = Cytotoxicity against human fibroblast cells assessed as viable cells at 10 uM by trypan blue staining based assay; assay type: cell-based; conditions: read-out: Activity
[4] = test system: MCF7; assay: Cytotoxicity against human MCF7 cells assessed as viable cells at 50 uM by trypan blue staining based assay; assay type: functional; conditions: read-out: Activity
[5] = Cytotoxicity against human fibroblast cells assessed as viable cells at 50 uM by trypan blue staining based assay; assay type: cell-based; conditions: read-out: Activity
[6] = Inhibition of P-gp in human MCF7/D70 cells assessed as decrease in doxorubicin IC50 at 10 uM after 72 hrs by MTT assay (Rvb doxorubicin alone IC50 = 0.906 +/- 0.02 uM); assay type: cell-based; conditions: MCF7/D70, 72 h
[7] = Inhibition of P-gp in human MCF7/D70 cells assessed as decrease in doxorubicin IC50 at 1 uM after 72 hrs by MTT assay (Rvb doxorubicin alone IC50 = 0.906 +/- 0.02 uM); assay type: cell-based; conditions: MCF7/D70, 72 h

Structure (SMILES) | viability at 10 µM [1] | IC50 [2] | viability at 10 µM [3] | viability at 50 µM [4] | viability at 50 µM [5] | IC50 [6] | IC50 [7]
COc1cc2c(cc1OC)C1C(CO)c3ccc4c(c3CN1CC2)OCO4 (centres undefined) | 90% | 570 nM | 100% | 72% | 75% |  | 
CC1(C)CCN(CCOC(=O)C(c2ccccc2)C2C=CCCC2)C1 (centres undefined) | 98% | 550 nM | 100% | 53% | 59% |  | 
Cc1ccc2c(c1)C(NC(Cc1ccccc1)C(=O)O)C(Cl)C(=O)O2 (centres undefined) | 75% | 850 nM | 94% | 74% | 100% |  | 
NC(c1ccc2c(c1)OCO2)C(O)c1ccc2c(c1)OCO2 (centres undefined) | 74% | 2520 nM | 100% | 72% | 82% |  | 
CN(C)C1C(c2ccccc2)S(=O)(=O)C1C1CS(=O)(=O)C1c1ccccc1 (centres undefined) | 68% |  | 39% | 5% | 19% |  | 
COc1cc(C2CNCc3cc(O)c(OC)cc32)ccc1O (centres undefined) | 75% | 830 nM | 100% | 80% | 100% |  | 
CN/N=C(\C)C(CN1CCCCC1)C(C1=C(O)c2ccccc2OC1)c1ccccc1 (centres undefined) | 100% | 1080 nM | 100% | 97% | 75% |  | 
Fc1ccc(N/C2=N/CC/N=C(/Nc3ccc(F)cc3)SS2)cc1 | 92% | 190 nM | 100% | 58% | 57% | 320 nM | 320 nM
CN1CCc2ccccc2C1Cc1cc(OCc2ccccc2)ccc1N (centres undefined) | 74% |  | 82% | 6% | 16% |  | 
COc1cc(-n2c(CCc3nc(-c4ccc(Cl)cc4)no3)n[nH]c2=S)c(OC)cc1Cl | 86% | 300 nM | 74% | 71% | 61% | 310 nM | 940 nM
CCC(C)N1CN(c2ccccc2)C2(CCN(CC3COc4ccccc4O3)CC2)C1=O (centres undefined) | 93% |  | 100% | 11% | 70% |  | 
C=CCN1CC[C@]23c4c5ccc(O)c4O[C@H]2C(=O)CC[C@@]3(O)[C@H]1C5 [NALOXONE] | 74% | 360 nM | 100% | 67% | 100% | 850 nM | 
Cc1ccc(N2CCN(CCCOC(=O)Nc3cccc4ccccc34)CC2)cc1 | 93% | 830 nM | 89% | 70% | 89% |  | 
CC1CN(CCOC(=O)C(c2ccccc2)C2C=CCCC2)CC1C (centres undefined) | 89% | 2120 nM | 100% | 74% | 100% |  | 
CC1CN(CC2COc3ccccc3O2)C(C)CN1CC1COc2ccccc2O1 (centres undefined) | 80% | 580 nM | 100% | 53% | 77% | 1450 nM | 
CN1CN(c2ccccc2)C2(CCN(CCc3cc4ccccc4o3)CC2)C1=O | 31% |  | 92% | 14% | 21% |  | 
N=c1[nH]c(=O)n(CCCCOc2ccccc2)cc1-c1ccc(Cl)c(Cl)c1 | 77% | 240 nM | 100% | 58% | 56% | 570 nM | 
COc1ccc(Nc2ccnc3cc(Cl)ccc23)cc1CNCC(C)C | 26% |  | 12% | 6% | 17% |  | 

Structure (SMILES) | viability at 10 µM [1] | IC50 [2] | viability at 10 µM [3] | viability at 50 µM [4] | viability at 50 µM [5] | IC50 [6] | IC50 [7]
CCN(Cc1ccccc1)C(=O)C1CCN(Cc2c[nH]c3ccccc23)CC1 | 48% | 620 nM | 56% | 13% | 21% |  | 
COc1cc2c(cc1OC)C(c1ccc(O)c(O)c1)CNC2 (centres undefined) | 93% | 800 nM | 100% | 97% | 97% |  | 
O=C1CN(CCN2CC(=O)N(Cc3ccccc3)C(=O)C2)CC(=O)N1Cc1ccccc1 | 76% | 240 nM | 100% | 69% | 82% | 850 nM | 
CC1CN(CCOC(=O)C(c2ccccc2)C2C=CCCC2)C(C)(C)C1 (centres undefined) | 93% |  | 84% | 61% | 36% |  | 
CCC1=C(CC2NCCc3ccccc32)CC2c3cc(OC)c(OC)cc3CCN2C1 (centres undefined) | 31% |  | 46% | 5% | 16% |  | 
ClCCNCc1cccc(Nc2ccnc3cc(Cl)ccc23)c1 | 86% |  | 96% | 15% | 48% |  | 
CCCNCCC(O)c1cc(C(F)(F)F)nc2c(C(F)(F)F)cccc12 (centres undefined) | 9% |  | 67% | 6% | 19% |  | 
CCN(CC)CCC(=O)NC1c2ccc(Cl)cc2Oc2c(C)cccc21 (centres undefined) | 100% |  | 100% | 9% | 13% |  | 
COc1cc(C2CNCc3cc(OC)c(O)cc32)ccc1O (centres undefined) | 76% | 610 nM | 100% | 73% | 90% | 840 nM | 
CC1(CN2CCCC2)CCC(NC(=O)C(c2ccccc2)c2ccccc2)C(C)(C)O1 (centres undefined) | 100% | 140 nM | 88% | 51% | 54% | 1730 nM | 
CCCC(=O)N(C)C1=Nc2ccc(Cl)cc2C(c2ccccc2)=[N+]([O-])C1 | 95% | 490 nM | 100% | 70% | 68% | 380 nM | 390 nM
C[N+]1(CCOC(=O)C(c2ccccc2)C2C=CCC2)CCCC12CCCCC2 (centres undefined) | 89% | 1550 nM | 100% | 75% | 81% |  | 
O=C1NCN(c2ccccc2)C12CCN(CCCS(=O)(=O)c1ccccc1)CC2 | 77% | 240 nM | 100% | 80% | 100% | 1140 nM | 
Cc1nn(C(=O)Cc2ccccc2)c2c1C(c1ccc(O)cc1)SC(=N)N2 (centres undefined) | 96% | 2070 nM | 100% | 55% | 63% |  | 
COc1ccc(C2NC(C(=O)O)Cc3c2[nH]c2ccccc32)cc1OC (centres undefined) | 89% | 1180 nM | 92% | 92% | 100% |  | 
COc1ccc(CCN(C)CCCC(C#N)(c2ccc(OC)c(OC)c2)C(C)C)cc1OC (centres undefined) [VERAPAMIL] |  |  |  |  |  | 200 nM | 
O=C1OCCN1N1C(=O)CC2(CCN(Cc3ccccc3)CC2)C1=O | 95% | 510 nM | 100% | 89% | 100% |  | 
